Values quoted from earlier work in paper PMC9227077, “Prediction Models for Brain Distribution of Drugs Based on Biomimetic Chromatographic Data” (Molecules, 2022).
Read-outs that look alike come from different tables or passages of the source.

Experiments:
[1] = parameters: method as in ref 23, 24, 27, 29, 45 (a number printed in a supplementary file, which may have a reference list of its own: not looked up in the article's list); settings: 100% aqueous mobile phase, previously obtained in authors' laboratory, cited from earlier work
[2] = experimental, cited from earlier work; for logP: octanol-water partition coefficient
α1 acid glycoprotein = test system: α1 acid glycoprotein; parameters: method as in ref 23, 24, 27, 29, 45 (a number printed in a supplementary file, which may have a reference list of its own: not looked up in the article's list); settings: pH=7.4, 100% aqueous mobile phase; previously obtained in authors' laboratory; cited from earlier work
[3] = cited from earlier work
human serum albumin = test system: human serum albumin; parameters: method as in ref 45 (a number printed in a supplementary file, which may have a reference list of its own: not looked up in the article's list); settings: cited from earlier work
[4] = rat brain tissue; cited from earlier work
[5] = most values in rats, average if more than one value; cited from earlier work
[6] = literature Kp,brain converted to logBB
[7] = total brain/total plasma, preferably rat studies
[8] = pH=7.4, isocratic, 10% acetonitrile, available for 37 compounds, remaining calculated by equation

Row | Compound | logkw IAM ([1]; pH=7.4, PBS) | logP [2] | logkw IAM ([1]; pH=5.0, PBS) | logkwAGP (α1 acid glycoprotein) | logBB exper. [3, 6] | Kp,brain [3, 7] | logD ([2]; pH=5.0, octanol-water) | logD ([2]; pH=7.4, octanol-water) | logk10,HSA (human serum albumin; [8]) | Kp,brain ([3]; rat, in vivo) | logBB exper. ([3]; rat, in vivo) | Kp,uu,brain [4] | fu,brain [5] | logk10,HSA (human serum albumin)
1 | CN1[C@@H]2CC[C@H]1C[C@@H](OC(=O)C(CO)c1ccccc1)C2 (stereo partly shown) [Atropine] | 1.05 |  |  |  |  |  |  |  |  |  |  |  |  | 
2 | CNCCC(Oc1ccc(C(F)(F)F)cc1)c1ccccc1 (stereo not shown) [Fluoxetine] | 2.98 | 4.26 | 2.46 | 2.10 | 0.72 | 5.25 |  |  |  |  |  |  |  | 
3 | CCCC(C)C1(CC)C(=O)NC(=O)NC1=O (stereo not shown) [Pentobarbital] | 1.29 | 2.07 | 1.40 | 1.35 |  |  | 1.88 | 1.95 | -0.04 | 1.32 | 0.12 |  |  | 
4 | CC(C)Cc1ccc(C(C)C(=O)O)cc1 (stereo not shown) [Ibuprofen] | 0.87 |  | 1.55 |  |  |  | 2.15 |  |  |  |  | 0.56 |  | 
5 | CN1CC[C@]23c4c5ccc(O)c4O[C@H]2[C@@H](O)C=C[C@H]3[C@H]1C5 [Morphine] | 0.63 |  | 0.10 |  |  |  |  |  |  |  |  |  |  | 
6 | CC(C)NCC(O)COc1cccc2[nH]ccc12 (stereo not shown) [Pindolol] |  |  |  |  | -0.14 | 0.72 | -1.15 | -0.21 | -0.03 |  |  |  | 0.400 | 
7 | CC(C)=CCN1CCC2(C)c3cc(O)ccc3CC1C2C (stereo not shown) [Pentazocine] | 2.06 | 4.64 | 1.70 |  | 0.545 | 3.51 | 1.24 | 4.02 | 1.09 |  |  |  |  | 
8 | CC(=O)[C@H]1CC[C@H]2[C@@H]3CCC4=CC(=O)CC[C@]4(C)[C@H]3CC[C@]12C [Progesterone] | 3.06 |  |  |  |  |  | 3.89 | 3.48 | 0.84 |  |  |  | 0.046 | 
9 | CC(CN1c2ccccc2Sc2ccccc21)N(C)C (stereo not shown) [Promethazine] | 2.78 |  | 2.18 | 2.50 | 0.824 | 6.67 | 1.59 | 2.79 | 1.05 |  |  |  |  | 
10 | C=C[C@H]1C[N@@]2CC[C@H]1C[C@@H]2[C@@H](O)c1ccnc2ccc(OC)cc12 [Quinidine] | 2.34 |  |  | 1.71 |  |  |  |  |  |  |  | 0.03 |  | 0.29
11 | O=c1n(CCCN2CCN(c3cccc(Cl)c3)CC2)nc2ccccn12 [Trazodone] |  |  |  | 2.36 |  |  | 2.89 | 3.70 |  |  |  |  | 0.071 | 
12 | CN(C)CCCN1c2ccccc2Sc2ccc(Cl)cc21 [Chlorpromazine] |  |  |  | 2.30 |  |  |  |  | 1.34 |  |  |  | 0.003 | 
13 | CNCCCC12CCC(c3ccccc31)c1ccccc12 [Maprotiline] | 2.81 | 4.14 | 2.25 |  | 1.76 | 57.54 | 1.19 | 1.44 | 0.80 |  |  |  | 0.006 | 
14 | COc1ccc2cc([C@H](C)C(=O)O)ccc2c1 [Naproxen] | 0.98 |  | 1.71 |  |  |  |  |  |  |  |  |  |  | 
15 | O=C1Nc2ccc(Cl)cc2C(c2ccccc2Cl)=NC1O (stereo not shown) [Lorazepam] | 2.03 |  | 2.01 | 1.33 | 0.47 | 2.95 |  |  | 0.67 |  |  |  |  | 
16 | CN1[C@@H]2C[C@@H](OC(=O)[C@H](CO)c3ccccc3)C[C@H]1[C@@H]1O[C@@H]12 [Scopolamine] | 1.15 |  | 0.73 |  |  |  |  |  |  |  |  |  |  | 
17 | Cc1cc(=O)n(-c2ccccc2)n1C [Antipyrine] | 0.45 |  |  | 0.88 |  | 0.80 |  |  |  |  |  | 0.71 | 0.862 | -1.04
18 | Cn1c(=O)c2[nH]cnc2n(C)c1=O [Theophylline] | -0.08 |  | -0.26 |  |  |  |  |  |  |  |  |  |  | 
19 | CN1C(=O)CN=C(c2ccccc2F)c2cc([N+](=O)[O-])ccc21 [Flunitrazepam] | 1.79 |  |  | 1.44 |  |  |  |  |  |  |  |  |  | 0.26
20 | CC1COc2c(N3CCN(C)CC3)c(F)cc3c(=O)c(C(=O)O)cn1c23 (stereo not shown) [Ofloxacin] | 1.30 |  | 1.35 |  |  |  | -1.31 |  |  |  |  | 0.12 |  | -0.65

Row | Compound | logkw IAM ([1]; pH=7.4, PBS) | logP [2] | logkw IAM ([1]; pH=5.0, PBS) | logkwAGP (α1 acid glycoprotein) | logBB exper. [3, 6] | Kp,brain [3, 7] | logD ([2]; pH=5.0, octanol-water) | logD ([2]; pH=7.4, octanol-water) | logk10,HSA (human serum albumin; [8]) | Kp,brain ([3]; rat, in vivo) | logBB exper. ([3]; rat, in vivo) | Kp,uu,brain [4] | fu,brain [5] | logk10,HSA (human serum albumin)
21 | CN(C)CCCN1c2ccccc2CCc2ccc(Cl)cc21 [Clomipramine] | 3.29 | 5.46 | 2.49 | 2.70 | 1.34 | 21.88 | 2.19 | 3.30 |  |  |  |  | 0.004 | 
22 | CNCCC=C1c2ccccc2CCc2ccccc21 [Nortriptyline] | 2.83 | 4.04 | 2.12 | 2.30 |  |  | 1.16 | 1.70 | 0.82 |  |  |  | 0.006 | 
23 | OCCN1CCN(CCCN2c3ccccc3Sc3ccc(Cl)cc32)CC1 [Perphenazine] | 3.67 | 4.20 |  | 3.19 |  |  | 1.61 | 3.65 | 1.24 |  |  |  | 0.004 | 
24 | COC(=O)[C@H]1[C@@H](OC(=O)c2ccccc2)C[C@@H]2CC[C@H]1N2C [Cocaine] | 1.90 | 3.01 |  |  |  |  | -0.96 | 1.07 | 0.33 | 3.98 | 0.6 | 0.37 |  | 
25 | Cc1nc2n(c(=O)c1CCN1CCC(c3noc4cc(F)ccc34)CC1)CCCC2 [Risperidone] | 2.49 |  |  |  |  |  |  |  | 0.13 |  |  | 0.08 |  | 
26 | CN1C(=O)C(O)N=C(c2ccccc2)c2cc(Cl)ccc21 (stereo not shown) [Temazapam] | 1.76 |  | 1.76 |  |  |  |  |  | 0.28 |  |  |  |  | 
27 | O=C(CCCN1CCC(O)(c2ccc(Cl)cc2)CC1)c1ccc(F)cc1 [Haloperidol] | 2.65 |  | 1.86 |  |  |  |  |  | 0.77 |  |  |  | 0.008 | 
28 | CN(C)CCCN1c2ccccc2CCc2ccccc21 [Imipramine] | 2.73 |  | 2.05 |  | 0.83 | 6.76 |  |  |  |  |  |  | 0.035 | 
29 | Cn1c(=O)c2c(ncn2C)n(C)c1=O [Caffeine] | 0.26 |  |  |  |  |  |  |  |  |  |  | 0.77 |  | 
30 | NC(=O)CN1CCCC1=O [Piracetam] |  |  |  |  |  | 1.00 | -1.54 | -1.54 | -1.32 |  |  |  |  | 
31 | CCC1(c2ccccc2)C(=O)NC(=O)NC1=O [Phenobarbital] | 0.28 |  | 0.71 | 1.10 |  |  | 1.47 | 1.14 | -0.22 | 0.72 | -0.14 |  |  | 
32 | CN(C)CCC=C1c2ccccc2COc2ccccc21 [Doxepin] | 2.50 | 3.96 | 1.98 | 2.30 |  |  | 0.86 | 2.22 | 0.56 |  |  |  |  | 
33 | CN1C(=O)CN=C(c2ccccc2)c2cc(Cl)ccc21 [Diazepam] | 2.12 |  | 2.12 |  |  |  |  |  |  |  |  |  |  | 
34 | OCCOCCN1CCN(C(c2ccccc2)c2ccc(Cl)cc2)CC1 (stereo not shown) [Hydroxyzine] | 3.01 |  | 2.23 |  | 0.39 | 2.45 | 0.73 | 3.01 | 0.60 |  |  |  | 0.013 | 
35 | Nc1nc2c(ncn2COCCO)c(=O)[nH]1 [Acyclovir] | -1.15 | -1.56 | -1.37 |  |  |  | -1.56 | -1.56 |  |  |  |  |  | 
36 | CCOc1nc2cccc(C(=O)O)c2n1Cc1ccc(-c2ccccc2-c2nnn[nH]2)cc1 [Candesartan] | 1.00 | 3.36 | 1.57 | 0.09 | -1.4 | 0.04 | 1.00 | -1.35 | 0.42 |  |  |  |  | 
37 | CC(=O)Oc1ccccc1C(=O)O [Acetylsalicylic acid] | -0.81 |  | -0.48 |  | -0.5 | 0.32 | -0.29 | -1.20 | 0.38 |  |  |  |  | 
38 | CC(C)NCC(O)COc1ccc(CC(N)=O)cc1 (stereo not shown) [Atenolol] | 0.51 |  | -0.20 |  |  |  |  |  |  |  |  |  |  | 
39 | Cc1c(N(C)C)c(=O)n(-c2ccccc2)n1C [Aminopyrine] |  |  |  |  | 0.00 | 1.00 |  |  | -0.30 |  |  |  |  | 
